# Test results as given in BindingDB's records for patent US11802108 (The University Court of The University of Edinburgh, 2023).
# Molecular target: Peptidyl-prolyl cis-trans isomerase A (Homo sapiens, UniProt P62937)
# Assay: Isothermal Titration Calorimetry (ITC)
# Protocol: The buffer used in the titrations of the compounds belonging to the ester series was 50 mM phosphate buffer, pH 6.5 and the concentration of DMSO was 2% v/v for all the compounds, unless otherwise stated in Table 51. […] Control experiments were performed, where each compound was titrated into buffer and when small amount of heat was detected due to heat of dilution, it was subtracted when processing the data using a linear fit method. In all cases the first injection was omitted from the data processing. All data were analysed using the MicroCal PEAQ-ITC Analysis software.
# Chain of Peptidyl-prolyl cis-trans isomerase A (P62937 whole entry): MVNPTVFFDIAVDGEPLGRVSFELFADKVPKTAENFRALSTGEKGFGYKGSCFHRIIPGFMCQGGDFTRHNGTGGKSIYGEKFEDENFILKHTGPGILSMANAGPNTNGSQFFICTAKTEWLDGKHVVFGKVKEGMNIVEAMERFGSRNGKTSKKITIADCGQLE
structure (smiles),measurement,value
"CCOC(=O)CNC(=O)N(Cc1ccc(N)cc1)Cc1cn(CC(=O)OCC)nn1 [US11802108, Compound 20]",Kd,> 600 µM
